Results published in PMC12136240 (Cell chemical biology, 2024).
Values belong to the compound of their own block, whether it stands above or below them.

Columns and labels:
[1] = tested on: zinc-finger (ZF) degrons fused to GFP in U2OS cells; assay: Off-target degradation of ZF degrons by flow cytometry; format: cell-based; settings: 32 nM to 20 μM, 24 h
[2] = biological target: GSPT1-GFP in HEK293T cells (Homo sapiens, UniProt P15170); assay: Off-target degradation of GSPT1 by flow cytometry; format: cell-based; settings: 24 h
[3] = biological target: endogenous BRD4 in MDA-MB-231 cells (Homo sapiens, UniProt O60885); format: cell-based; settings: 5 h (Fig. 3b)
[4] = biological target: BRD4(BD1)-GFP in HEK293T cells (Homo sapiens, UniProt O60885+Q96SW2); assay: TR-FRET quantification of BRD4; settings: for DC50: read-out: DC50(BD1), HEK293T BRD4(BD1)-GFP reporter cells
[5] = biological target: BRD4(BD2)-GFP in HEK293T cells (Homo sapiens, UniProt O60885+Q96SW2); assay: TR-FRET quantification of BRD4; settings: for DC50: read-out: DC50(BD2), HEK293T BRD4(BD2)-GFP reporter cells, 4 h
His6-CRBN/DDB1 = His6-CRBN/DDB1 (Homo sapiens, UniProt Q96SW2); assay: TR-FRET ligand displacement assay; format: binding; settings: for fold difference in KD between POM and POM-cN: monofunctional compounds, POM binds more tightly
BRD4 in HEK293T cells = BRD4 in HEK293T cells (Homo sapiens, UniProt O60885); assay: BRD4 degradation assay, western blot; format: cell-based; settings: 4 h, 100 nM–10 μM dose-response
[6] = biological target: His6-CRBN/DDB1–GST-BRD4(BD1) ternary complex (Homo sapiens, UniProt O60885+Q96SW2); assay: TR-FRET off-rate measurement of the ternary complex, BD1; format: binding; settings: BRD4 dissociation triggered by excess JQ1
BRD4 BD1 bromodomain = settings: read-out: KD for BD1; cited from earlier work
BRD4 BD2 bromodomain = settings: read-out: KD for BD2; cited from earlier work
[7] = tested on: His6-CRBN/DDB1 in the presence of GST-BRD4(BD1); assay: TR-FRET ternary complex / cooperativity assay with 1 μM BD1; format: binding; settings: Alpha = KD,CRBN[binary]/KD,CRBN[ternary]
[8] = tested on: His6-CRBN/DDB1 in the presence of GST-BRD4(BD2); assay: TR-FRET ternary complex / cooperativity assay with 1 μM BD2; format: binding; settings: Alpha = KD,CRBN[binary]/KD,CRBN[ternary]

Dmax, off-target degradation of GSPT1 [2]: ≤ 1%
SMILES: Cc1sc2c(c1C)C(c1ccc(Cl)cc1)=N[C@@H](CC(=O)Nc1ccc(OCCOCCOCCOCCNc3cccc4c3C(=O)N(C3CCC(=O)NC3=O)C4=O)cc1)c1nnc(C)n1-2 (stereo partly drawn) [ARV-825]
degradation of C2H2 zinc finger targets including IKZF3 and ZFP91, in words [1]: fast and rapid degradation

endogenous BRD4 degradation potency, in words [3]: one of the most potent BRD4 degraders
DC50 ([4]; 4 h): 41 nM
DC50 [5]: 78 nM
SMILES: Cc1sc2c(c1C)C(c1ccc(Cl)cc1)=N[C@@H](CC(=O)NCCCCCCCCC(=O)N[C@@H](C)C(=O)N[C@H]1CCC(=O)NC1=O)c1nnc(C)n1-2 [JQ1-AcQ]

Kd (His6-CRBN/DDB1; read-out: KD against His6-CRBN/DDB1 (binary), competition binding with Thal-FITC): < 100 nM
SMILES: Cc1sc2c(c1C)C(c1ccc(Cl)cc1)=N[C@@H](CC(=O)NCCCCCCCCC(=O)N[C@@H](Cc1ccccc1)C(=O)N[C@H]1CC(=O)NC1=O)c1nnc(C)n1-2 [JQ1-FcN]
BRD4 degradation, western blot, in words (BRD4 in HEK293T cells): efficient degradation of BRD4 at a concentration of 100 nM

stability of the ternary complex with BRD4(BD1), in words [6]: most stable and long-lived complexes
time to reach maximum level of degradation (Dmax), BRD4(BD1) ([4]; HEK293T BRD4(BD1)-GFP cells): 1.5 h
fold difference in DC50 between BD1 and BD2 ([4]; HEK293T reporter cells, 4 h, more potent on BD1): 5–10 fold
DC50 ([4]; 4 h): 103 nM
time to reach maximum level of degradation (Dmax), BRD4(BD2) ([5]; HEK293T BRD4(BD2)-GFP cells): 3 h
DC50 [5]: 513 nM
SMILES: Cc1sc2c(c1C)C(c1ccc(Cl)cc1)=N[C@@H](CC(=O)NCCCCCCCCC(=O)N[C@@H](Cc1ccc(O)cc1)C(=O)N[C@H]1CCC(=O)NC1=O)c1nnc(C)n1-2 [JQ1-YcQ]

SMILES: Cc1sc2c(c1C)C(c1ccc(Cl)cc1)=N[C@@H](CC(=O)OC(C)(C)C)c1nnc(C)n1-2 [JQ1]
Kd (BRD4 BD1 bromodomain): 50 nM
Kd (BRD4 BD2 bromodomain): 90 nM

SMILES: Nc1cccc2c1C(=O)N(C1CCC(=O)NC1=O)C2=O (stereo not drawn) [POM, pomalidomide]
fold difference in KD between POM and POM-cN (His6-CRBN/DDB1): ~ 500 fold

fold difference in KD between POM and POM-cN (His6-CRBN/DDB1): ~ 500 fold
SMILES: Nc1cccc2c1C(=O)N(C1CC(=O)NC1=O)C2=O (stereo not drawn) [POM-cN]

SMILES: Cc1sc2c(c1C)C(c1ccc(Cl)cc1)=N[C@@H](CC(=O)NCCCCCCCCNC(=O)COc1cccc3c1C(=O)N(C1CCC(=O)NC1=O)C3=O)c1nnc(C)n1-2 (stereo partly drawn) [dBET6]
cooperativity with BRD4(BD1), in words [7]: negative cooperativity
cooperativity with BRD4(BD2), in words [8]: negative cooperativity
Dmax, off-target degradation of ZF degrons [1]: ≈ 6%
Dmax, off-target degradation of GSPT1 [2]: ≤ 9%
